Legend:
human EP4 = biological target: T1, human EP4 (Homo sapiens, UniProt P35408); assay: cAMP Gs functional assay (HTRF cAMP dynamic-2) in EP4-transfected HEK293 cells; format: cell-based; settings: HEK293 cells transfected with EP4 BacMam virus; for EC50: 30 min at 37° C., HTRF cAMP, read-out: cAMP human EP4 pEC50 (converted); for cAMP human EP4 Emax: positive control PGE2
T1 construct: expressed in transfected cells; host or cells: HEK293 cells transduced with EP4 BacMam baculovirus
Description: Cloning, Baculovirus generation, large scale infection of HEK293 cells and membrane preparation: Human prostaglandin E2 receptor 4 (EP4) was cloned into pBacMam expression vector (GeneScript, UK). Transposition of EP4 DNA was performed using Invitrogen's Bac-to-Bac Baculovirus Expression Systems. P0 baculovirus was generated by transfecting SF9 Cells with bacmid DNA using Cellfectin II transfection reagent (ThermoFisher Scientific, UK). Following P0 generation P1 virus was then generated ready for large scale infection and membrane preparation. HEK293 cells were grown in DMEM (ThermoFisher Scientific, UK), supplemented with 10% heat inactivated fetal bovine serum (FBS). Cells were infected at a seeding density of 3.5 million cells/mL in 500 cm^3 flasks at 5% v/v EP4 Bacman. Expression was carried out over a 36 hour period at 37° C. with 5% CO2. The cells were removed using PBS and a cell scrapper. The cell culture was centrifuged at 2500 RPM for 10 mins at 4° C. The supernatant was then poured off and the pellet stored at −80° C. The pellet was defrosted and re-suspended in 15 mL of homogenising buffer (20 mM HEPES, 10 mM EDTA, pH 7.4). Then homogenised in mechanical homogeniser (VMR) for 10 seconds. The membrane was centrifuged in centrifuge tubes at 40,000 g for 15 mins at 4° C. The supernatant was poured away and re-suspended in 15 mL of homogenising buffer and homogenised for 20 seconds. The membrane was then centrifuged at 40,000 g for 45 mins at 4° C. The membrane was then re-suspended in 3 mL of storage buffer (20 mM HEPES, 0.1 mM EDTA, pH 7.4) mixing well. The resulting membranes were then stored at −80° C.
cAMP Gs Functional Assay: cAMP production following EP4 receptor activation was determined using the Homogeneous Time-Resolved Fluorescence (HTRF) cAMP dynamic-2 assay (Cisbio, France). HEK293 cells were transfected using a 0.5% EP4 Bacman virus for 36 hours, before dissociating the cells, and freezing at −150° C.
On the day of testing, increasing concentration of test compounds, alongside positive controls ([…] PGE2 (Tocris, Abingdon, UK)) and negative control (DMSO (Sigma-Aldrich, UK) were added to a ProxiPlate-384 Plus, White 384-shallow well Mircoplate, (PerkinElmer, USA) using the ECHO dispense.
Cells were defrosted in a water bath and resuspended in DMEM supplemented with 10% FBS before centrifuging at 1200 RPM for 5 mins to form a pellet. The pellet was resuspended in assay buffer (DMEM+0.5 mM IBMX (Tocris, Abingdon, UK)) to 0.5×10^6 cells/mL. Cell suspension, for a final assay concentration of 5000 cell/well was added using the multidrop to the pre-dispensed assay plate. The plate was then incubated at 37° C. for 30 mins, with 5% CO2. The cAMP production was determined as manufacturer's instructions, before plates were read on a PheraStar fluorescence plate reader (BMG LabTech, Germany).

[1] = Unidirectional Caco-2 cell permeability assay; format: in vitro ADME; settings: human, apical pH 6.5, basolateral pH 7.4, 1 hour, 37° C., n=2
Description: Caco-2 cells (ECACC) were seeded onto 24-well Transwell plates at 2×10^5 cells per well and used in confluent monolayers after a 21 day culture at 37° C. under 500 CO2. Test compounds were incubated at 10 μM, 0.2% DMSO final, n=2 in assay buffer (Hanks balanced salt solution supplemented with 25 mM HEPES, adjusted to pH 6.5). Hanks balanced salt solution supplemented with 25 mM HEPES, adjusted to pH 7.4 (0.2% DMSO final) was used for the basolateral chamber (as receiver).
Incubations were performed at 37° C., with samples removed from both donor and acceptor chambers at T=0 and 1 hour and compound analysed by mass spectrometry (LC-MS/MS) including an analytical internal standard ([…] carbamazepine).
Apparent permeability (Papp) values are shown in Table 3 and were determined from the relationship:
Where V is the volume of each Transwell compartment (apical 125 μL, basolateral 600 μL), and concentrations are the relative MS responses for compound (normalized to internal standard) in the donor chamber before incubation and acceptor chamber at the end of the incubation Area=area of cells exposed for drug transfer (0.33 cm^2).
Lucifer Yellow (LY) was added to the apical buffer in all wells to assess viability of the cell layer. As LY cannot freely permeate lipophilic barriers, a high degree of LY transport indicates poor integrity of the cell layer and wells with a LY Papp>10×10^−6 cm/s were rejected.
Compound recovery from the wells was determined from MS responses (normalized to internal standard) in donor and acceptor chambers at the end of incubation compared to response in the donor chamber pre-incubation.

T1 sequence (P35408 whole entry): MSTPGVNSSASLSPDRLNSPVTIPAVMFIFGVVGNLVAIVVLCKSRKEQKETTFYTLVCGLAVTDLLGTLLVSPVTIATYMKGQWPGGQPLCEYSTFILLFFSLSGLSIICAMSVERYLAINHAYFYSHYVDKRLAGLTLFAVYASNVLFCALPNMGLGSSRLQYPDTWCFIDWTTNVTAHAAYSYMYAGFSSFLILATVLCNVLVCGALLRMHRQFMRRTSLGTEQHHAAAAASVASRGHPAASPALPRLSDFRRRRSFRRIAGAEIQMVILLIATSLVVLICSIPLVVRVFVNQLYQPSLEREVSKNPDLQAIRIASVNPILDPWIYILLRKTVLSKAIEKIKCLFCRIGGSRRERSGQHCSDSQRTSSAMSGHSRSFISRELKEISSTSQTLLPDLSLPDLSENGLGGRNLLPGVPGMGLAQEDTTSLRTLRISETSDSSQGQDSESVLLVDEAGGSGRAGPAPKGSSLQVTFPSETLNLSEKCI

Row | EC50 (human EP4) | cAMP human EP4 Emax (human EP4) | Papp A→B at 1 h, 10 μM [1] | Structure (SMILES)
1 | > 1000 nM |  |  | Cc1cc(C(N)=O)ccc1-c1cc(CN2CCC[C@@H]2C(=O)N[C@@H](C)c2ccc(C(=O)O)cc2)c[n+]([O-])c1 [Example 26, 3-(4-carbamoyl-2-methylphenyl)-5-(((R)-2-(((S)-1-(4-carboxyphenyl)ethyl)carbamoyl)pyrrolidin-1-yl)methyl)pyridine 1-oxide]
2 | 0.0501 nM | 97% | < 0.1 ×10⁻⁶ cm/s | Cc1cc(O)ccc1-c1cc(O)cc(CN2CCC[C@@H]2C(=O)N[C@@H](C)c2ccc(C(=O)O)c(O)c2)c1 [Example 35, 4-((S)-1-((R)-1-((4′,5-dihydroxy-2′-methyl-[1,1′-biphenyl]-3-yl)methyl)pyrrolidine-2-carboxamido)ethyl)-2-hydroxybenzoic acid]
3 | 0.0316 nM | 97% | 0.32 ×10⁻⁶ cm/s | Cc1cc(O)ccc1-c1cc(O)cc(CN2CCC[C@@H]2C(=O)N[C@@H](C)c2ccc(C(=O)O)cc2)c1 [Example 33, 4-((S)-1-((R)-1-((4′,5-dihydroxy-2′-methyl-[1,1′-biphenyl]-3-yl)methyl)pyrrolidine-2-carboxamido)ethyl)benzoic acid]
4 | 6.31 nM | 85% | < 0.28 ×10⁻⁶ cm/s | Cc1cc(S(N)(=O)=O)ccc1-c1cccc(CN2CC3CC2(C(=O)NC2(c4ccc(C(=O)O)cc4)CC2)C3)c1 [Example 27, 4-(1-(2-((2′-methyl-4′-sulfamoyl-[1,1′-biphenyl]-3-yl)methyl)-2-azabicyclo[2.1.1]hexane-1-carboxamido)cyclopropyl)benzoic acid]
5 | 0.158 nM | 91% | 0.245 ×10⁻⁶ cm/s | Cc1cc(C(N)=O)ccc1-c1cc(O)cc(CN2CC3CC2(C(=O)N[C@@H](C)c2ccc(C(=O)O)cc2)C3)c1 [Example 23, (S)-4-(1-(2-((4′-carbamoyl-5-hydroxy-2′-methyl-[1,1′-biphenyl]-3-yl)methyl)-2-azabicyclo[2.1.1]hexane-1-carboxamido)ethyl)benzoic acid]
6 | 0.2 nM | 100% | 0.24 ×10⁻⁶ cm/s | Cc1cc(C(N)=O)ccc1-c1cc(O)cc(CN2CCC[C@@H]2C(=O)N[C@@H](C)c2ccc(C(=O)O)c(O)c2)c1 [Example 34, 4-((S)-1-((R)-1-((4′-carbamoyl-5-hydroxy-2′-methyl-[1,1′-biphenyl]-3-yl)methyl)pyrrolidine-2-carboxamido)ethyl)-2-hydroxybenzoic acid]
7 | 0.398 nM | 90% |  | Cc1cc(S(N)(=O)=O)ccc1-c1cccc(CN2CC3CC2(C(=O)N[C@@H](C)c2ccc(C(=O)O)cc2)C3)c1 [Example 32, (S)-4-(1-(2-((2′-methyl-4′-sulfamoyl-[1,1′-biphenyl]-3-yl)methyl)-2-azabicyclo[2.1.1]hexane-1-carboxamido)ethyl)benzoic acid]
8 | 1260 nM | 91% |  | Cc1cc(C(N)=O)ccc1-c1cncc(CN2C[C@H](O)C[C@@H]2C(=O)N[C@@H](C)c2ccc(C(=O)O)cc2)c1 [Example 25, 4-((S)-1-((2R,4R)-1-((5-(4-carbamoyl-2-methylphenyl)pyridin-3-yl)methyl)-4-hydroxypyrrolidine-2-carboxamido)ethyl)benzoic acid]

Second part, the compound before the results:

Row | Structure (SMILES) | EC50 (human EP4) | cAMP human EP4 Emax (human EP4) | Papp A→B at 1 h, 10 μM [1]
9 | Cc1cc(C(N)=O)ccc1-c1cccc(CN2CCC[C@@H]2C(=O)N[C@@H](C)c2ccc(C(=O)O)c(O)c2)c1 [Example 17, 4-((S)-1-((R)-1-((4′-carbamoyl-2′-methyl-[1,1′-biphenyl]-3-yl)methyl)pyrrolidine-2-carboxamido)ethyl)-2-hydroxybenzoic acid] | 63.1 nM | 97% | 
10 | Cc1cc(S(N)(=O)=O)ccc1-c1cccc(CN2C[C@H](O)C[C@@H]2C(=O)N[C@@H](C)c2ccc(C(=O)O)cc2)c1 [Example 4, 4-((S)-1-((2R,4R)-4-hydroxy-1-((2′-methyl-4′-sulfamoyl-[1,1′-biphenyl]-3-yl)methyl)pyrrolidine-2-carboxamido)ethyl)benzoic acid] | 158 nM | 98% | 0.26 ×10⁻⁶ cm/s
11 | Cc1cc(C(N)=O)ccc1-c1cc(O)cc(CN2CCC[C@@H]2C(=O)N[C@@H](C)c2ccc(C(=O)O)cc2)c1 [Example 13] | 0.251 nM | 99% | 0.34 ×10⁻⁶ cm/s
12 | Cc1cc(OS(N)(=O)=O)ccc1-c1cccc(CN2CCC[C@@H]2C(=O)N[C@@H](C)c2ccc(C(=O)O)cc2)c1 [Example 10] | 2 nM | 96% | 1.84 ×10⁻⁶ cm/s
13 | C[C@H](NC(=O)[C@H]1CCCN1Cc1cccc(-c2ccc(S(N)(=O)=O)cc2O)c1)c1ccc(C(=O)O)cc1 [Example 22] | 126 nM | 85% | < 0.1 ×10⁻⁶ cm/s
14 | C[C@H](NC(=O)[C@H]1CCCN1Cc1ccc(O)c(-c2ccc(C(N)=O)cc2)c1)c1ccc(C(=O)O)cc1 [Example 12, 4-((S)-1-((R)-1-((4′-carbamoyl-6-hydroxy-[1,1′-biphenyl]-3-yl)methyl)pyrrolidine-2-carboxamido)ethyl)benzoic acid] | 7.94 nM | 89% | 0.26 ×10⁻⁶ cm/s
15 | Cc1cc(C(N)=O)ccc1-c1cccc(CN2CCC[C@@H]2C(=O)N[C@@H](C)c2ccc(C(=O)O)cc2)c1 [Example 3, 4-((S)-1-((R)-1-((4′-carbamoyl-2′-methyl-[1,1′-biphenyl]-3-yl)methyl)pyrrolidine-2-carboxamido)ethyl)benzoic acid] | 12.6 nM | 100% | 1.18 ×10⁻⁶ cm/s
16 | Cc1cc(C(=O)O)ccc1-c1cccc(CN2CCC[C@@H]2C(=O)N[C@@H](C)c2ccc(C(=O)O)cc2)c1 [Example 9, 3′-(((R)-2-(((S)-1-(4-carboxyphenyl)ethyl)carbamoyl)pyrrolidin-1-yl)methyl)-2-methyl-[1,1′-biphenyl]-4-carboxylic acid] | 200 nM | 96% | 0.33 ×10⁻⁶ cm/s
17 | Cc1cc(C(N)=O)ccc1-c1cccc(CN2CCC[C@@H]2C(=O)NCc2ccc(C(=O)O)c(O)c2)c1 [Example 15, (R)-4-((1-((4′-carbamoyl-2′-methyl-[1,1′-biphenyl]-3-yl)methyl)pyrrolidine-2-carboxamido)methyl)-2-hydroxybenzoic acid] | 31.6 nM | 96% | < 0.1 ×10⁻⁶ cm/s
18 | C[C@H](NC(=O)[C@H]1CCCN1Cc1ccc(O)c(-c2ccc(S(N)(=O)=O)cc2)c1)c1ccc(C(=O)O)cc1 [Example 19] | 100 nM | 90% | < 0.12 ×10⁻⁶ cm/s
19 | Cc1cc(C(N)=O)ccc1-c1cc(O)cc(CN2C[C@H](O)C[C@@H]2C(=O)N[C@@H](C)c2ccc(C(=O)O)cc2)c1 [Example 21, 4-((S)-1-((2R,4R)-1-((4′-carbamoyl-5-hydroxy-2′-methyl-[1,1′-biphenyl]-3-yl)methyl)-4-hydroxypyrrolidine-2-carboxamido)ethyl)benzoic acid] | 7.94 nM | 96% | < 0.11 ×10⁻⁶ cm/s
